{"source": "a melting point compilation (Tetko et al.)", "data": [{"units": {"melting point": "°C"}, "values": [{"smiles": "Cc1ccsc1", "melting point": -69}, {"smiles": "O=C1NN=C(C(F)(F)F)C1=NNc1cccc([N+](=O)[O-])c1", "melting point": 254}, {"smiles": "O=C(CCc1ccccc1)NNc1ccccc1", "melting point": 117}, {"smiles": "CC(=O)N1CC(c2ccccc2)C=C1c1ccccc1", "note": "(stereo not given)", "melting point": 105}, {"smiles": "O=C(OCc1ccc(Cl)cc1)c1cnc(Cl)nc1C(F)(F)F", "melting point": "69 to 71"}, {"smiles": "Cc1ccc(N)c(C)c1", "melting point": 16}, {"smiles": "O=C(CBr)c1c(Cl)cc(C(F)(F)F)cc1Cl", "melting point": "46 to 48"}, {"smiles": "CCO/C=N/c1c(C(=O)OCC)sc2sc(C(=O)OCC)c(/N=C/OCC)c12", "melting point": 267}, {"smiles": "O=C(O)CS(=O)(=O)O", "melting point": 85}, {"smiles": "Cc1cc(C(F)(F)F)c2c(N)c(C#N)sc2n1", "melting point": "182 to 184"}, {"smiles": "N#Cc1ccc(Cl)nc1", "melting point": 118}, {"smiles": "COc1cc2c(Cc3ccccc3)cncc2cc1O", "melting point": 207}, {"smiles": "CC12CCC3c4ccc(OC5CCCC5)cc4CCC3C1CC(O)C2O", "note": "(stereo not given)", "melting point": 99}, {"smiles": "O=C1COc2ccccc21", "melting point": 102}, {"smiles": "Nc1cc(S(=O)(=O)F)ccc1Cl", "melting point": "64 to 68"}, {"smiles": "CC1(c2ccccc2)CC(C(=NO)c2cc3cc(Br)ccc3o2)C1", "note": "(stereo not given)", "melting point": "134 to 135"}, {"smiles": "CCCCC(CC)C(=O)O", "note": "(stereo not given)", "melting point": -59}, {"smiles": "CC(C)(C)OC(=O)N[C@H](CC(=O)O)Cc1ccncc1", "melting point": 142}, {"smiles": "N[C@H](Cc1ccc(I)cc1)C(=O)O", "melting point": 251}, {"smiles": "O=C(CO)[C@@H](O[C@H]1O[C@H](CO)[C@@H](O)[C@H](O)[C@H]1O)[C@H](O)[C@H](O)CO", "melting point": 168}, {"smiles": "C=CC=c1c(=CC)c(O)c(C2=NNC(=O)C2=CNc2ccncc2)c(=O)n1C", "melting point": 238}, {"smiles": "CC12CCC(/C(=C3/OC(C4C(=O)C5(C)CCC4C5(C)C)C3=O)C1=O)C2(C)C", "note": "(stereo not given)", "melting point": 196}, {"smiles": "CC(=O)N(Nc1ccc(-c2ccc([N+](=O)[O-])cc2)cc1)c1ccccc1", "melting point": 161}, {"smiles": "O=P(O)(OCc1ccccc1)OCc1ccccc1", "melting point": 80}, {"smiles": "CC(O)=NNC(N)=O", "melting point": 165}, {"smiles": "O=C1NC(=O)C(Cc2cccc(CC3C(=O)NC(=O)NC3=O)c2)C(=O)N1", "melting point": 272}, {"smiles": "CCCCCCCCCCCCOC(C)=O", "melting point": 1.3}, {"smiles": "Nc1cc(O)nc(N)n1", "melting point": "285 to 286"}, {"smiles": "CC=CCCCCC", "melting point": -80}, {"smiles": "CCCCCCCCCCCCCCC(=O)OC", "melting point": 18.5}, {"smiles": "CC(=O)N[C@H]1C(O)O[C@H](CO)[C@@H](O)[C@@H]1O", "note": "(stereo not given in full)", "melting point": 211}, {"smiles": "CCCCNC(=O)NS(=O)(=O)c1ccccc1", "melting point": 131}, {"smiles": "COc1cc(OC)nc(NC(=O)NS(=O)(=O)Nc2ccccc2C(=O)C2CC2)n1", "melting point": 162}, {"smiles": "O=C(Cc1cc(CC(=O)c2ccccc2)c([N+](=O)[O-])cc1[N+](=O)[O-])c1ccccc1", "melting point": "170 to 171"}, {"smiles": "O=C(O)CCN1CCNCC1", "melting point": "71 to 86"}, {"smiles": "CC(=O)CC(O)C(Cl)(Cl)Cl", "note": "(stereo not given)", "melting point": "75 to 76"}, {"smiles": "CC12C=CC=CC1NC(=C1C(=O)c3ccccc3C1=O)C=C2", "note": "(stereo not given)", "melting point": 203}, {"smiles": "CCC(C(N)=O)c1ccccc1", "note": "(stereo not given)", "melting point": 86}, {"smiles": "O=C1c2ccccc2C(=O)C1c1ccc(Br)cc1", "melting point": 138}, {"smiles": "CC(C)n1nnc2cc(C(=O)O)ccc21", "melting point": "222 to 227"}, {"smiles": "COC(=O)[C@H](C)NC(=O)c1ccccc1", "melting point": "61 to 63"}, {"smiles": "CCCCCCCc1ccc(C(=O)Oc2ccc(C#N)cc2)cc1", "melting point": "43 to 46"}, {"smiles": "O=C(Cl)c1ccc(-c2ccsc2)cc1", "melting point": "145 to 147"}, {"smiles": "CC(=O)OC1CC2C(C)C(=O)C3(C(O)CC4C(C)(C)CCCC4(CO)C13)C2O", "note": "(stereo not given)", "melting point": 120}, {"smiles": "O=C(O)c1cccc(OC(F)(F)F)c1", "melting point": 89}, {"smiles": "Cc1ccc(N)c(Cl)c1", "melting point": 7}, {"smiles": "Nc1ncccc1Br", "melting point": 66}, {"smiles": "CC(C)=CCCC(C)=CCCC(C)=CCO", "melting point": 25}, {"smiles": "CCOC(=O)c1cc2cc(Br)ccc2o1", "melting point": "69 to 72"}, {"smiles": "O=Cc1ccc2oc3ccccc3c2c1", "melting point": 74}, {"smiles": "OCc1ccc(Cl)nc1", "melting point": 48}, {"smiles": "c1ccc(C2=NCCN2)cc1", "melting point": 96.5}, {"smiles": "C#CCC(C)(C)C", "melting point": -75}, {"smiles": "COc1cc(C)cc2c1C(=O)C2", "melting point": 93}, {"smiles": "COc1ccc2c(c1)OC(c1ccccc1)CC2=O", "note": "(stereo not given)", "melting point": 88}, {"smiles": "COC(=O)c1cnc(SCC(=O)NC(=O)Nc2ccccc2)n1C", "melting point": "204 to 205"}, {"smiles": "NC(=S)c1cccs1", "melting point": 108}, {"smiles": "Cc1ccc(-c2cc(N)[nH]n2)cc1", "melting point": "153 to 154"}, {"smiles": "O=c1oc2c(O)c(O)cc3c(=O)oc4c(O)c(O)cc1c4c23", "melting point": 450}, {"smiles": "CC(=O)C(N=Nc1ccccc1)C(C)=O", "melting point": 87}, {"smiles": "COc1ccccc1-c1ccc(/C=C2/C=C(CC(C)C)OC2=O)o1", "melting point": 89}, {"smiles": "O=C1OC(=O)C2CC12", "note": "(stereo not given)", "melting point": "54 to 60"}, {"smiles": "CCN(CC)c1ccc2nc3c4ccccc4c(=O)cc-3oc2c1", "melting point": "203 to 205"}, {"smiles": "COc1ccc(-c2csc(/C(C#N)=C\\c3cccnc3)n2)cc1", "melting point": 235}, {"smiles": "O=[N+]([O-])c1cc(Br)cnc1Cl", "melting point": "64 to 67"}, {"smiles": "Cc1oc(-c2ccccc2)nc1CC(=O)O", "melting point": "131 to 133"}, {"smiles": "CCOC(=O)C1=C(C)NC(C)=C(C(=O)OCC)C1c1ccccc1", "melting point": 157}, {"smiles": "Nc1c2ccccc2nc2ccccc12", "melting point": 241}, {"smiles": "COc1ccc(OC)c(Cl)c1", "melting point": 8.1}, {"smiles": "CN1C(c2cccnc2)N(C)[C@@H](c2ccccc2)[C@@H]1c1ccccc1", "melting point": "99 to 102"}, {"smiles": "CCC(CC)(CBr)CBr", "melting point": 40}, {"smiles": "O=S(=O)(Cl)Cc1ccc(C(F)(F)F)cc1", "melting point": "104 to 106"}, {"smiles": "NNC(=O)c1cc2ccccc2s1", "melting point": 186}, {"smiles": "COC(=O)[C@H](Cc1ccccc1)N=C=S", "melting point": "34 to 36"}, {"smiles": "FC(F)(F)c1ccc(Cl)c(C(F)(F)F)c1", "melting point": -59}, {"smiles": "COc1ccc(C(=O)Nc2ccc(-c3ccc4nn(-c5ccccc5)nc4c3)cc2)cc1", "melting point": "240 to 243"}, {"smiles": "Cc1cc(CCl)c(C)cc1CCl", "melting point": 132}, {"smiles": "CN(C)c1nnc(Br)c(-c2nc(N(C)C)nnc2Br)n1", "melting point": 123}, {"smiles": "Nc1nc(=O)c2[nH]c(=S)[nH]c2[nH]1", "melting point": 300}, {"smiles": "COC(=O)[C@]12c3ccccc3[C@]34c5ccccc5[C@H]1[C@@]32C(=O)O[C@@H]4C", "melting point": 203}, {"smiles": "O=C(O)C1C(C(=O)O)C2(Cl)C(Cl)=C(Cl)C1(Cl)C2(Cl)Cl", "note": "(stereo not given)", "melting point": 209}, {"smiles": "C1=CCCCCC1", "melting point": -56}, {"smiles": "Cn1ccc2c(C#N)cccc21", "melting point": "41 to 43"}, {"smiles": "Clc1ccccc1-c1nc2ccccc2[nH]1", "melting point": 234}, {"smiles": "CCOC(=O)c1cnc2c(c(C)nn2C)c1Cl", "melting point": "87 to 90"}, {"smiles": "COc1ccccc1C1Nc2nc(C(F)(F)F)nn2C(N)=C1C#N", "note": "(stereo not given)", "melting point": 245}, {"smiles": "CC(C)(C)OOC(C)(C)C", "melting point": -30}, {"smiles": "CCCC[N+](=O)[O-]", "melting point": -81.3}, {"smiles": "[N-]=[N+]=Nc1ccc(Br)cc1", "melting point": 20}, {"smiles": "O=[N+]([O-])c1cccc2nsnc12", "melting point": "106 to 110"}, {"smiles": "NS(=O)(=O)c1cc2c(cc1C(F)(F)F)NC(Cc1ccccc1)NS2(=O)=O", "note": "(stereo not given)", "melting point": 222}, {"smiles": "CN(C)c1ccc(N=c2cc(-c3ccccc3)sc(-c3ccccc3)c2)cc1", "melting point": 165}, {"smiles": "CC(=O)OC1(C(C)=O)CCC2C3CC(C)C4=CC(=O)CCC4(C)C3CCC21C", "note": "(stereo not given)", "melting point": 206}, {"smiles": "Ic1cc(I)c(I)cc1I", "melting point": 254}, {"smiles": "Cc1nn2c(-c3ccccc3)nnc2s1", "melting point": "192 to 194"}, {"smiles": "NC(=S)c1c[nH]cn1", "melting point": "205 to 207"}, {"smiles": "CC(C)(C)c1nn(-c2ccccc2)c(N)c1Cn1nnc2ccccc21", "melting point": 124}, {"smiles": "BrCc1c(CBr)c(CBr)c2ccccc2c1CBr", "melting point": 197}, {"smiles": "NC(CO)CO", "melting point": 54}, {"smiles": "c1ccc(C(c2ccccc2)=P(c2ccccc2)(c2ccccc2)c2ccccc2)cc1", "melting point": "169 to 171"}, {"smiles": "O=C(OCc1ccccc1)[C@@H](O)[C@H](O)C(=O)OCc1ccccc1", "melting point": "63 to 65"}, {"smiles": "O=c1[nH]c(=O)c2cn[nH]c2[nH]1", "melting point": 300}, {"smiles": "O=Cc1ccc2sccc2c1", "melting point": "53 to 54"}, {"smiles": "Ic1c(-c2ccccc2)cccc1-c1ccccc1", "melting point": 115}, {"smiles": "O=C(CS(=O)(=O)c1ccccc1)c1ccccc1", "melting point": "92 to 95"}, {"smiles": "CCSc1nnn[nH]1", "melting point": "88 to 89"}, {"smiles": "Nc1cc(C(F)(F)F)ccc1N1CCCCC1", "melting point": "41 to 43"}, {"smiles": "O=C(c1ccccc1)C(Br)c1ccccc1", "note": "(stereo not given)", "melting point": "53 to 58"}, {"smiles": "CCOC(=O)C(C)=P(c1ccccc1)(c1ccccc1)c1ccccc1", "melting point": "157 to 159"}, {"smiles": "Cc1ccc(NO)cc1", "melting point": 96}, {"smiles": "CC(CC/C(=N/O)C(C)C)CC(=O)O", "note": "(stereo not given)", "melting point": "186 to 187"}, {"smiles": "ICCCCCCCCCCI", "melting point": 30}, {"smiles": "NC(=O)c1sccc1Br", "melting point": 78}, {"smiles": "O=Cc1ccc(N2CCCC2)nc1", "melting point": "89 to 90"}, {"smiles": "Nc1nc(Cl)c2ncn(C3OC(CO)C(O)C3O)c2n1", "note": "(stereo not given)", "melting point": "166 to 167"}, {"smiles": "NC(=S)c1ccc[nH]1", "melting point": "161 to 163"}, {"smiles": "O=c1[nH]c2scc(-c3ccccc3)c2c(=O)n1-c1cccc(Cl)c1", "melting point": "269 to 270"}, {"smiles": "Cc1cnc2c(ccc3c(C)c(C)cnc32)c1C", "melting point": 278}, {"smiles": "Clc1ccc(Br)nc1", "melting point": "65 to 69"}, {"smiles": "CCCc1c(C(=O)OCC)cnn1-c1ccc(Cl)cc1", "melting point": "63 to 65"}, {"smiles": "CC(=O)Oc1cc(C)ccc1C1(C)CC(C)(C)c2ccc(C)cc2O1", "note": "(stereo not given)", "melting point": 102}, {"smiles": "Cc1n[nH]c2c(=O)n(-c3ccccn3)c(C)nc12", "melting point": "222 to 224"}, {"smiles": "CC(=O)CC(=O)c1cccnc1", "melting point": 85}, {"smiles": "CNC(=O)N(C)C", "melting point": 75.5}, {"smiles": "CN1CCN(c2ccccc2C(=O)O)CC1", "melting point": "67 to 72"}, {"smiles": "O=C(O)COCCNC(=O)C12CC3CC(CC(C3)C1)C2", "melting point": "120 to 124"}, {"smiles": "OCCC1CCCCN1", "note": "(stereo not given)", "melting point": 69}, {"smiles": "c1ccc(C2=C(c3ccccc3)C(c3ccccc3)C(c3ccccc3)=C2c2ccccc2)cc1", "melting point": "254 to 257"}, {"smiles": "Sc1cc(Cl)c(Cl)cc1Cl", "melting point": "117 to 118"}, {"smiles": "COc1cc(N)c(C(c2ccc(C)o2)c2ccc(C)o2)cc1OC", "melting point": 79}]}]}
